Experiments:
Trypanosoma cruzi [1] = assay: GSK_TCAKS: pIC50 Trypanosoma cruzi viability assay using beta-GAL activity. This assay was run at single shot at 5uM compound concentration per well. The biological reagents consisted of NIH-3T3 host cells and trypomastigotes parasitic cells; both cell types were set to a 3.3 * 10^5 cells/mL dilution in assay DMEM by means of a CASY cell counter device using a 60um capillary. 6 uL of the mixture were dispensed per well (about 1 * 10^3 host-cells and 1 * 10^3 parasites) with a Multidrop Combi dispenser. […] In all wells, the percentage of DMSO never exceeded 0.5%. Plates incubated for four days at 37C, 5% CO2. The substrate used for the assay fluorescence intensity (FLINT) readout was resorufin-beta-D-galactopiranoside (Sigma-Aldrich) at 5uM per well. It was diluted in PBS supplemented with the soft detergent Igepal (Fluka).; type: functional, organism-based, Mus musculus; details: Tulahuen, NIH3T3
Trypanosoma cruzi [2] = assay: (§1) GSK_TCAKS: pIC50 Trypanosoma cruzi Imaging: Infected Cells. […] Cells were then washed once with PBS before infection. T. cruzi trypomastigotes, collected at days 5 to 8 after infection from LLC-MK2 parasite infected cultures, were allowed to swim out for 4h at 37C from a centrifuged pellet (2,500 rpm/10 min/room temperature). Trypomastigotes were then collected and counted in a CASY Cell Counter. Trypomastigotes, in supplemented DMEM, were added to H9c2 cultures in a multiplicity of infection of 1 and incubated for 18 h. Cells were washed once with PBS before incubation of the infected H9c2 monolayer with trypsin (Life-Technologies) to detach cells from the flask. Cells were counted in a CASY Cell Counter using a 150 um capillary and their density set at 5 * 10^4 cells per mL in supplemented assay DMEM. Infected H9c2 were dispensed into 384-well poly-lysine coated assay plates at 50uL per well using a Multidrop Combi dispenser. After seeding them, the plates were incubated at 37C, 5% CO2 for 72h. Cultures were then fixed and stained by addition of 50 uL of a solution containing 8% formaldehyde and 4 uM DRAQ5 DNA dye (BioStatus, UK) per well. […] Five images were collected per well for reliable statistical analysis. Automated image analysis was performed with a script developed on Acapella High Content Imaging and Analysis Software (PerkinElmer). Output: percentage of infected cells per well as a second infection marker.; type: functional, organism-based, Rattus norvegicus; details: H9c2, 4 h
Trypanosoma cruzi [3] = assay: GSK_TCAKS: pIC50 Trypanosoma cruzi Imaging: Amastigotes/Cell. […] Cells were then washed once with PBS before infection. T. cruzi trypomastigotes, collected at days 5 to 8 after infection from LLC-MK2 parasite infected cultures, were allowed to swim out for 4h at 37C from a centrifuged pellet (2,500 rpm/10 min/room temperature). Trypomastigotes were then collected and counted in a CASY Cell Counter. Trypomastigotes, in supplemented DMEM, were added to H9c2 cultures in a multiplicity of infection of 1 and incubated for 18 h. Cells were washed once with PBS before incubation of the infected H9c2 monolayer with trypsin (Life-Technologies) to detach cells from the flask. Cells were counted in a CASY Cell Counter using a 150 um capillary and their density set at 5 * 10^4 cells per mL in supplemented assay DMEM. Infected H9c2 were dispensed into 384-well poly-lysine coated assay plates at 50uL per well using a Multidrop Combi dispenser. After seeding them, the plates were incubated at 37C, 5% CO2 for 72h. Cultures were then fixed and stained by addition of 50 uL of a solution containing 8% formaldehyde and 4 uM DRAQ5 DNA dye (BioStatus, UK) per well. […] Five images were collected per well for reliable statistical analysis. Automated image analysis was performed with a script developed on Acapella High Content Imaging and Analysis Software (PerkinElmer). Output: number of amastigotes per cell as infection level measurement.; type: functional, organism-based, Rattus norvegicus; details: H9c2, 4 h
Trypanosoma cruzi [4] = assay: as §1, with “H2C9” for “Trypanosoma cruzi”, “H9c2 Host Cardiomyocytes.” for “Infected Cells.”, “Number” for “percentage”, “H9c2 Host Cardiomyocytes nuclei to determine drug-related cytotoxicity.” for “infected cells per well as a second infection marker.”; type: functional, organism-based, Rattus norvegicus; details: H9c2, 4 h
Leishmania donovani [5] = assay: GSK_TCAKS: pIC50 Leishmania donovani viability assay using fluorescence intensity. Assay plates (1536-well) were prepared by adding 30nL per well of compound. For single shot assay, the final compound concentration was 5uM. […] Briefly, eGFP LdBOB axenic amastigotes were harvested, fixed and counted in a CASY cell counter (Roche-Applied Science). A final concentration of 1.5 * 10^5 cells per well were prepared in amastigote media containing 500 U/mL penicillin/streptomycin (Invitrogen) and 6uL was dispensed to each experimental well using a Multidrop Combi dispenser (Thermo Scientific). 6uL of assay media was dispensed to control columns used as reference for 100% compound response. Following incubation for 72 h at 37C, 5% CO2, 2 uL of resazurin was added to each well at a final concentration of 0.5 mM in phosphate buffered saline (PBS) with IGEPAL (Sigma-Aldrich), 0.05% (v/v).; type: functional, organism-based
Leishmania donovani [6] = assay: (§2) GSK_TCAKS: pIC50 Leishmania donovani Imaging: Infected Macrophages. Assay plates (384-well) were prepared by adding 250nL of compound to each well. For single shot assay, the final compound concentration was 5 uM. […] Automated image analysis was performed with a script developed on Acapella High Content Imaging and Analysis Software (PerkinElmer). Output: Percent of infected macrophage cells were reported for each well.; type: functional, organism-based, Homo sapiens; details: THP-1
Leishmania donovani [7] = assay: as §2, with “Amastigotes/Macrophages.” for “Infected Macrophages.”, “Average number” for “Percent”, “amastigotes per” for “infected”, “cell” for “cells”; type: functional, organism-based, Homo sapiens; details: THP-1
Leishmania donovani [8] = assay: as §2, with “THP-1 Host” for “Infected”, “THP-1 cell count” for “Percent of infected macrophage cells”; type: functional, organism-based, Homo sapiens
[9] = system: Trypanosoma brucei brucei; assay: GSK_TCAKS: pIC50 Trypanosoma brucei viability assay using fluorescence intensity. Assay plates (1536-well) were prepared by dispensing 25nL of compound solution per well using an Echo acoustic dispenser (Labcyte).; type: functional, organism-based; details: Lister 427, 2 h
[10] = system: Trypanosoma brucei brucei; assay: GSK_TCAKS: pIC50 Trypanosoma brucei viability assay using luminiscence. Assay plates (1536-well) were prepared. T. brucei cultures were harvested and counted in a CASY cell counter. A parasite suspension was prepared at a final concentration of 5 * 10^4 cells/mL in complete HMI9 medium and 6uL was dispensed to all wells containing compounds using a Multidrop Combi dispenser. 6uL of HMI9 media with 0.4% DMSO were dispensed to control columns. Plates were incubated for 24 h at 37C, 5% CO2 then tempered for 10 min at room temperature. ATP content was quantified by adding 4 uL of CellTiter-Glo Reagent (Promega) according to the manufacturer's instructions. Luminescence was measured using a ViewLux.; type: functional, organism-based; details: Lister 427, CASY
[11] = GSK_TCAKS: pIC50 HepG2 human cell line viability assay using luminiscence. […] Seeding density was checked to ensure that new mono-layers were not more than 50% confluent at the time of harvesting. Cell suspension was added to 500 mL of the same medium at a final density of 1.2 * 10^5 cells/mL. This cell suspension was dispensed (25 uL, 3000 cells per well) into 384-well clear-bottom plates using a Multidrop Combi dispenser. Prior to addition of the cell suspension, the screening compounds (250 nL) were pre-dispensed into the plates with an Echo liquid handler. Plates were incubated for 48 h at 37C, 5% CO2. After incubation, plates equilibrated at room temperature for 30 min before proceeding to develop the luminescent signal. The signal developer, CellTiter-Glo Reagent, was allowed to equilibrate at room temperature for 30 min and added to the plates (25uL per well) using a Multidrop Combi dispenser. Plates were left for 10 min at room temperature for stabilization and then read using a ViewLux.; type: toxicity, cell-based
[12] = target: Sterol 14-alpha demethylase (Trypanosoma cruzi (strain CL Brener), UniProt Q7Z1V1); assay: GSK_TCAKS: pIC50 CYP51 from Trypanosoma cruzi.; type: functional
Sterol 14-alpha demethylase, sequence (Q7Z1V1 whole entry): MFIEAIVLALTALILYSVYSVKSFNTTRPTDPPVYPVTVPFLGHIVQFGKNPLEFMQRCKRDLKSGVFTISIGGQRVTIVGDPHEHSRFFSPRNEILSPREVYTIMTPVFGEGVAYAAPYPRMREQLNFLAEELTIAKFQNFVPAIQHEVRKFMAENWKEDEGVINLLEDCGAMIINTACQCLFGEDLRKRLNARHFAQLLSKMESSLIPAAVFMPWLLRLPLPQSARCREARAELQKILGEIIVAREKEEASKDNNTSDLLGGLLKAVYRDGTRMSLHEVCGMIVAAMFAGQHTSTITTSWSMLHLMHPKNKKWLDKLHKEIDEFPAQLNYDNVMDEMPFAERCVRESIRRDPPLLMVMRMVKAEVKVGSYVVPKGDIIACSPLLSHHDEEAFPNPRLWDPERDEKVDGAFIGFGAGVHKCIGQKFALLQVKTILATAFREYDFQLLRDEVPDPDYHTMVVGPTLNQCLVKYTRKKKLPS

Compound	IC50 (Trypanosoma cruzi [1]) [µM]	IC50 (Trypanosoma cruzi [2]) [µM]	IC50 (Trypanosoma cruzi [3]) [µM]	IC50 (Trypanosoma cruzi [4]) [µM]	IC50 (Leishmania donovani [5]) [µM]	IC50 (Leishmania donovani [6]) [µM]	IC50 (Leishmania donovani [7]) [µM]	IC50 (Leishmania donovani [8]) [µM]	IC50 [9] [µM]	IC50 [10] [µM]	IC50 at 48 h [11] [µM]	IC50 [12] [µM]
COc1ccc(CN2C(=O)C(O)(CC(=O)c3ccncc3)c3cc(Br)ccc32)cc1OC (centres undefined)	2.51	25.1	12.6	2	39.8	25.1	20	39.8	0.631	0.631	39.8	0.501
CCOc1ccc(CC(=O)N2c3ccccc3CC2C(=O)NC)cc1 (centres undefined)	> 50.1	> 50.1	> 50.1	> 50.1	> 50.1	> 50.1	> 50.1	> 50.1	0.501	0.501	> 100	> 100
Cc1occc1C(=O)Nc1ccccc1C(=O)Nc1nccs1	> 50.1	> 50.1	31.6	> 50.1	> 50.1	> 50.1	> 50.1	> 50.1	0.398	0.501	> 100	> 100
NS(=O)(=O)c1ccc(Nc2ncc3cccc(OC4CCNCC4)c3n2)cc1	1.78	0.0501	0.02	0.631	39.8	20	15.8	1	0.2	0.316	> 100	> 100
O=C(CC1(O)C(=O)N(Cc2cccs2)c2ccc(Br)cc21)c1cccnc1 (centres undefined)	5.01	39.8	25.1	3.98	> 50.1	> 50.1	> 50.1	20	0.631	0.794	63.1	12.6
COc1ccc2nccc(NC(=O)C3(OC)CCN(CC(O)c4ccc5c(c4)OCCO5)CC3)c2n1 (centres undefined)	0.251	0.316	0.126	15.8	10	20	6.31	25.1	0.398	0.501	39.8	1
O=C(NC1CCN(C2Cc3ccc(NS(=O)(=O)c4cc(F)cc(F)c4)cc3C2)CC1)C1CC1 (centres undefined)	> 50.1	> 50.1	> 50.1	> 50.1	25.1	> 50.1	12.6	12.6	1	0.794	> 100	50.1
CC(C)(C)CC(=O)NCc1noc(COc2ccccc2)n1	2.82	2.51	2.51	> 50.1	> 50.1	> 50.1	> 50.1	> 50.1	0.631	0.794	> 100	50.1
O=C(COc1ccccc1)Nc1ccccc1C(=O)Nc1nccs1	> 50.1	> 50.1	> 50.1	> 50.1	> 50.1	> 50.1	> 50.1	7.94	0.398	0.631	> 100	> 100
O=C(CN1CCN(c2ccccn2)CC1)Nc1cc(S(=O)(=O)N2CCCCCC2)ccc1Cl	10	7.94	6.31	> 50.1	7.94	6.31	1.26	50.1	12.6	25.1	> 100	3.16
COCCn1c(-c2ccc3c(c2)OCO3)cnc1NCc1ccccc1OC	7.94	20	7.94	39.8	12.6	10	5.01	39.8	20	25.1	39.8	5.01
O=C(Nc1nc(-c2ccccn2)cs1)C1CCc2ccccc2C1 (centres undefined)	2	2.51	2	3.98	5.01	0.631	0.398	7.94	3.16	3.16	39.8	25.1
CCOC(=O)c1noc(N)c1-c1ccccc1	> 50.1	> 50.1	> 50.1	> 50.1	> 50.1	> 50.1	> 50.1	> 50.1	0.631	0.631	> 100	> 100
CCOc1ccc2nc(NC(=O)c3ccc([N+](=O)[O-])s3)sc2c1	1.78	1.26	1	10	2.51	6.31	5.01	> 50.1	1.26	2.51	31.6	> 100
O=C(Nc1ccccc1)Nc1nc(-c2ccccn2)cs1	0.631	1	0.631	1	1.58	0.398	0.251	6.31	1	1	25.1	31.6
COc1ccc(Nc2nccc(N(C)c3n[nH]c4c(F)cccc34)n2)cc1S(C)(=O)=O	2	3.98	2	7.94	25.1	2.51	1	10	6.31	10	20	31.6
Cc1nc(-c2ccncc2)ncc1C(C)NC(=O)c1ccc(Cl)s1 (centres undefined)	25.1	31.6	20	> 50.1	> 50.1	> 50.1	> 50.1	> 50.1	1	1	> 100	0.794
